What was measured:
Candida = test: Antifungal in-vivo activity (oral) in mouse candidosis; design: species or system Mäuse vom Typ SPF-CF1; key to Wirkung (Ueberlebende am 6.Tag p.i.): +++++: = sehr gute Wirkung = 90 % Ueberlebende am 6.Tag p.i.; ++++: = gute Wirkung = 80 % Ueberlebende am 6.Tag p.i.; +++: = Wirkung = 60 % Ueberlebende am 6.Tag p.i.; ++: = schwache Wirkung = 40 % Ueberlebende am 6.Tag p.i.; +: = Spur Wirkung = unter 40% " " " "; k.W.: = keine Wirkung; conditions: for Wirkung (Ueberlebende am 6.Tag p.i.): 50 - 100 mg/kg one hour before and seven hours after i.v. infection; for Wirkung compared with known compounds (A), (B), (C), (D): mouse candidosis
Method: Mäuse vom Typ SPF-CF1 wurden intravenös mit 1 - 2 x 10^6 logarithmisch wachsenden Candida-Zellen, die in physiologischer Kochsalzlösung suspendiert werden, infiziert. Eine Stunde vor und sieben Stunden nach der Infektion werden die Tiere mit jeweils 50 - 100 mg/kg Körpergewicht der Präparate oral behandelt.
Unbehandelte Tiere starben 3 bis 6 Tage post infektionem. Die Ueberlebensrate am 6.Tag post infektionem betrug bei unbehandelten Kontrolltieren etwa 5 %.

[1] = test system: Dermatophyten, Schimmelpilze, Hefen; test: Antifungal in-vitro activity, serial dilution test, overall statement; format: cell-based
Method: Versuchsbeschreibung: • Die in-vitro-Prüfungen wurden im Reihenverdünnungstest mit Keiminokula von durchschnittlich 5 x 10^4 Keimen/ml Substrat durchgeführt. Als Nährmedium dienten • a) für Dermatophyten und Schimmelpilze: Sabouraud's milieu d'epreuve • b) für Hefen: • Fleischextrakt-Traubenzucker-Bouillon.
Die Bebrütungstemperatur betrug 20°C, die Bebrütungsdauer lag bei 24 bis 96 Stunden bei Hefen und 96 Stunden bei Dermatophyten und Schimmelpilzen.

[2] = test system: Trichophyton mentagrophytes; test: In-vivo activity (local) in experimental guinea pig trichophytosis; design: species or system Meerschweinchen; key to Wirkung (Infektionszeichen): +++++: sehr gute Wirkung = keine Infektionszeichen am 12.-15.Tag p.i.; ++++: gute Wirkung = geringe Rötung, vereinzelt Schuppen; +++: Wirkung = Rötung, Schuppung, ohne Haarausfall; ++: schwache Wirkung = Rötung, Schuppung, Haarausfall; +: Spur Wirkung = flächiger Haarausfall, entzündliche Hautreaktion; conditions: for Wirkung (Infektionszeichen): 1x daily from day 3 p.i., 15%-ige Lösung in Dimethylsulfoxid : Glycerin = 1 : 4; for Wirkung: trichophytosis model

| SMILES | Wirkung (Ueberlebende am 6.Tag p.i.) (Candida) | antimykotische Wirkung compared with known compounds (A), (B), (C), (D) [1] | Wirkung compared with known compounds (A), (B), (C), (D) (Candida) | Wirkung (Infektionszeichen) [2] | Wirkung [2] |
| --- | --- | --- | --- | --- | --- |
| Cc1ccc(OCC(O)(Cn2cncn2)C(C)(C)C)cc1 (centres unmarked) [(A), reference compound] | k.W. |  |  |  |  |
| Cc1cc(Cl)ccc1OCC(O)(Cn1cncn1)C(C)(C)C (centres unmarked) [(C), reference compound] | k.W. |  |  |  |  |
| COC(COc1ccc(Cl)cc1C)(Cn1cncn1)C(C)(C)C (centres unmarked) [Beispiel 1, 2-(4-Chlor-2-methyl-phenoxymethyl)-3,3-dimethyl-2-methoxy-1-(1,2,4-triazol-1-yl)-butan] | +++ (= Wirkung = 60 % Ueberlebende am 6.Tag p.i.) | bessere antimykotische Wirkung | bessere Wirkung | ++++ | gute Wirkung |
| COC(COc1ccc(Cl)cc1)(Cn1cncn1)C(C)(C)C (centres unmarked) [Beispiel 2] | ++++ (= gute Wirkung = 80 % Ueberlebende am 6.Tag p.i.) |  | bessere Wirkung | ++++ | gute Wirkung |
| COC(COc1ccc(Cl)cc1Cl)(Cn1cncn1)C(C)(C)C (centres unmarked) [Beispiel 3] | +++ (= Wirkung = 60 % Ueberlebende am 6.Tag p.i.) | bessere antimykotische Wirkung | bessere Wirkung | ++++ | gute Wirkung |
| COC(CCc1ccc(Cl)cc1)(Cn1cncn1)C(C)(C)C (centres unmarked) [Beispiel 4] | +++++ (= sehr gute Wirkung = 90 % Ueberlebende am 6.Tag p.i.) | bessere antimykotische Wirkung | bessere Wirkung | ++++ | gute Wirkung |
| COC(CCc1ccc(F)cc1)(Cn1cncn1)C(C)(C)C (centres unmarked) [Beispiel 5] | ++++ (= gute Wirkung = 80 % Ueberlebende am 6.Tag p.i.) | bessere antimykotische Wirkung | bessere Wirkung | ++++ | gute Wirkung |

— patent publication EP0085843A1, “Antimycosic agent” (BAYER AG, priority 1982, dated 1983)
